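Growth conditions: 96-well plates. Treatment: test compound, 48 hours, 5 concentrations. Analysis: linear interpolation between bracketing concentrations; unreached endpoints set to highest concentration. GI50 = concentration required for 50% inhibition of growth. The concentration for full growth arrest is given as TGI.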
Assays:
Test in all cases: NCI tumour cell line growth inhibition, 48 h
[1] = test system: M14 melanoma
[2] = test system: IGROV1 ovarian
[3] = test system: SNB-75 CNS
[4] = test system: SW-620 colon
[5] = test system: T-47D breast
[6] = test system: OVCAR-5 ovarian
[7] = test system: UACC-257 melanoma
[8] = test system: CAKI-1 renal
[9] = test system: OVCAR-3 ovarian
[10] = test system: HL-60(TB) leukemia

| Structure (SMILES) | GI50 [1] | TGI [1] | GI50 [2] | TGI [2] | GI50 [3] | TGI [3] | GI50 [4] | TGI [4] | GI50 [5] | TGI [5] | GI50 [6] | TGI [6] | GI50 [7] | TGI [7] | GI50 [8] | TGI [8] | GI50 [9] | TGI [9] | GI50 [10] | TGI [10] |
| --- | --- | --- | --- | --- | --- | --- | --- | --- | --- | --- | --- | --- | --- | --- | --- | --- | --- | --- | --- | --- |
| C=C(C)[C@@H]1CC[C@]2(CO)CC[C@]3(C)[C@H](CC[C@@H]4[C@@]5(C)CCCNC(C)(C)[C@@H]5CC[C@]43C)[C@@H]12 | 1.58 µM | 3.13 µM | 1.66 µM | 3.26 µM | 1.54 µM | 2.91 µM | 1.81 µM | 3.41 µM | 1.73 µM | 3.71 µM | 1.51 µM | 2.89 µM | 1.95 µM | 3.73 µM | 1.55 µM | 2.89 µM | 1.66 µM | 3.13 µM | – | – |
| NCCCCC(NC(=O)C(N)CCCN=C(N)N)C(=O)NC(CCCCN)C(=O)NC(CCCN=C(N)N)C(=O)NC(CCCN=C(N)N)C(=O)NC(CCC(N)=O)C(=O)NC(CCCN=C(N)N)C(=O)NC(CCCN=C(N)N)C(=O)NC(CCCN=C(N)N)C(=O)NCC(=O)NCC(=O)O (configuration not stated) | > 50 µM | > 50 µM | > 50 µM | > 50 µM | > 50 µM | > 50 µM | > 50 µM | > 50 µM | > 50 µM | > 50 µM | > 50 µM | > 50 µM | – | – | > 50 µM | > 50 µM | > 50 µM | > 50 µM | > 50 µM | > 50 µM |
| CSc1cc([C@@H]2C[C@H]2c2ccc(Cl)cc2)on1 | 9.27 µM | > 100 µM | 14.8 µM | > 100 µM | 21.3 µM | 49.5 µM | 20.7 µM | 59.8 µM | 22.2 µM | > 100 µM | 14.5 µM | 35.2 µM | 15.8 µM | 35.6 µM | 12.5 µM | 35.7 µM | 15.4 µM | 33.4 µM | – | – |
| COC(=O)CCC(=O)Nc1ccc(Cl)cc1C | – | > 100 µM | – | > 100 µM | – | > 100 µM | – | > 100 µM | – | – | – | > 100 µM | – | > 100 µM | – | > 100 µM | – | > 100 µM | – | 13.6 µM |
| COc1ccc(C(=O)C2CCC(C(=O)O)C2)cc1 (configuration not stated) | – | > 100 µM | – | > 100 µM | – | > 100 µM | – | > 100 µM | – | – | – | > 100 µM | – | > 100 µM | – | > 100 µM | – | > 100 µM | – | > 100 µM |
| NC(=O)CC1OC(=O)Cc2cc3c(c(O)c21)C(=O)c1c(O)cccc1C3=O (configuration not stated) | – | > 100 µM | – | > 100 µM | – | – | – | > 100 µM | – | > 100 µM | – | > 100 µM | – | > 100 µM | – | > 100 µM | – | – | – | > 100 µM |
| CC(=O)OC12C(C)=C(C)C(=O)N1c1ccccc1N2C(C)=O (configuration not stated) | – | > 100 µM | – | > 100 µM | – | > 100 µM | – | > 100 µM | – | – | – | > 100 µM | – | > 100 µM | – | > 100 µM | – | > 100 µM | – | > 100 µM |
| CC(C)(C)C(=O)N1C(C(=O)O)Cc2ccccc2[C@@H]1Cc1ccccc1 (some centres not stated) | – | > 100 µM | – | > 100 µM | – | > 100 µM | – | > 100 µM | – | – | – | > 100 µM | – | > 100 µM | – | > 100 µM | – | > 100 µM | – | > 100 µM |
| Cc1ccc(OCC2CO2)c(Br)c1 (configuration not stated) | – | 95.9 µM | – | 37.1 µM | – | – | – | 33 µM | – | > 100 µM | – | 34.6 µM | – | > 100 µM | – | > 100 µM | – | 68 µM | – | > 100 µM |
